Measured values reported in patent US7473790B2 (Pfizer Inc., priority 2003, dated 2009).

These compounds were tested against T1, HCV polymerase (Hepatitis C virus genotype 1b, UniProt P26663) (assay: HCV polymerase primer/template-directed transcription assay (32P-GTP incorporation, filter binding)). Conditions: @ 20 uM compound; given where IC50 was impractical to calculate; read-out: percent inhibition.
T1 construct: 2.5 pmoles (0.15 μg) HCV polymerase protein in a final volume of 75 μL
Format: biochemical
Summary of the method: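 Recombinant genotype 1b polymerase (30 nM) extended biotin-dG12 primer on poly(rC)300 template with 1 μM GTP plus α-32P-GTP, pH 7.2, 10 mM MgCl2, 30 min at 30° C, 1% DMSO final. Products captured on DE filters and counted. IC50 fitted from triplicate cpm, with a tight-binding correction applied below 200 nM.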

T1 sequence (P26663 2420-3010): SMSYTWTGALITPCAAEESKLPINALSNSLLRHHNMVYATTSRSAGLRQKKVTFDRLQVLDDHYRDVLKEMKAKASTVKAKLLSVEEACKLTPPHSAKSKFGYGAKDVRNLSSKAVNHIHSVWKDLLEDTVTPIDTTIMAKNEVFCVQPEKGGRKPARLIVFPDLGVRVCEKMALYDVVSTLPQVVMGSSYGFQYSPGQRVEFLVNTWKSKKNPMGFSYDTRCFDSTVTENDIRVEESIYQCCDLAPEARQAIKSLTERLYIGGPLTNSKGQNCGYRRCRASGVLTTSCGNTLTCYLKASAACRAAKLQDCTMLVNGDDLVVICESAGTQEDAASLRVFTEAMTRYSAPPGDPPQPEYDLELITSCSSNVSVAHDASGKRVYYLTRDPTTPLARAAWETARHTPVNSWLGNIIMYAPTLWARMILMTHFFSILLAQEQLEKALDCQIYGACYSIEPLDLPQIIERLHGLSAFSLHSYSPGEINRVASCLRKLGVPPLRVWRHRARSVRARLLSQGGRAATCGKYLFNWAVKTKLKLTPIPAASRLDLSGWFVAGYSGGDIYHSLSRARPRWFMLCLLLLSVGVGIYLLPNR

Question: Which inhibition at 20 µM does the source give for `COc1ccc(CCC2(C3CCCC3)CC(OCc3cccnc3)=CC(=O)O2)cc1Cl` (stereo not shown) [G(1), 6-[2-(3-chloro-4-methoxyphenyl)ethyl]-6-cyclopentyl-4-(pyridin-3-ylmethoxy)-5,6-dihydro-2H-pyran-2-one] here?
Answer: 16%

Question: Which inhibition at 20 µM does the source give for `COc1ccc(CCC2(C3CCCC3)CC(OCc3ccccn3)=CC(=O)O2)cc1Cl` (stereo not shown) [G(2), 6-[2-(3-Chloro-4-methoxy-phenyl)-ethyl]-6-cyclopentyl-4-(pyridin-2-ylmethoxy)-5,6-dihydro-pyran-2-one] here?
Answer: 3%

Same assay, conditions: @ 50 uM compound; given where IC50 was impractical to calculate; read-out: percent inhibition

Question: How did the inhibition at 50 µM turn out when `O=C(O)CC(O)(CCNC(=O)CCc1ccco1)C1CCCC1` (stereo not shown) [H(5), 3-Cyclopentyl-5-(3-furan-2-yl-propionylamino)-3-hydroxy-pentanoic acid] was run?
Answer: 7%

Same assay, conditions: recombinant HCV polymerase; 30 minutes at 30° C.; concentration giving 50% inhibition of polymerase-directed transcription; read-out: IC50

Question: With `COc1ccc(CCC2(C3CCCC3)CC(O)=C(Sc3nnc(CN(C)C)n3C)C(=O)O2)cc1Cl` (stereo not shown) [C(97), 6-[2-(3-chloro-4-methoxyphenyl)ethyl]-6-cyclopentyl-3-({5-[(dimethylamino)methyl]-4-methyl-4H-1,2,4-triazol-3-yl}thio)-4-hydroxy-5,6-dihydro-2H-pyran-2-one] as the compound, how does the IC50 read?
Answer: 120 nM

Question: For `COc1ccc(CCC2(C3CCCC3)CC(O)=C(Sc3nc4ncc(C)cn4n3)C(=O)O2)cc1Cl` (stereo not shown) [C(98), 6-[2-(3-chloro-4-methoxyphenyl)ethyl]-6-cyclopentyl-4-hydroxy-3-[(6-methyl[1,2,4]triazolo[1,5-a]pyrimidin-2-yl)thio]-5,6-dihydro-2H-pyran-2-one], which IC50 is on record?
Answer: 68 nM

Question: With `COc1ccc(CCC2(C3CCCC3)CC(O)=C(Sc3nnc(C)n3C)C(=O)O2)cc1Cl` (stereo not shown) [C(99), 6-[2-(3-chloro-4-methoxyphenyl)ethyl]-6-cyclopentyl-3-[(4,5-dimethyl-4H-1,2,4-triazol-3-yl)thio]-4-hydroxy-5,6-dihydro-2H-pyran-2-one] as the compound, how does the IC50 read?
Answer: 79 nM

Question: Which IC50 does the source give for `COC(=O)c1nnc(SC2=C(O)CC(CCc3ccc(OC)c(Cl)c3)(C3CCCC3)OC2=O)n1C` (stereo not shown) [C(100), methyl 5-({6-[2-(3-chloro-4-methoxyphenyl)ethyl]-6-cyclopentyl-4-hydroxy-2-oxo-5,6-dihydro-2H-pyran-3-yl}thio)-4-methyl-4H-1,2,4-triazole-3-carboxylate] here?
Answer: 32 nM

Question: With `COc1ccc(CCC2(C3CCCC3)CC(O)=C(Sc3nccn3C)C(=O)O2)cc1Cl` (stereo not shown) [C(101), 6-[2-(3-chloro-4-methoxyphenyl)ethyl]-6-cyclopentyl-4-hydroxy-3-[(1-methyl-1H-imidazol-2-yl)thio]-5,6-dihydro-2H-pyran-2-one] as the compound, how does the IC50 read?
Answer: 140 nM

Question: How did the IC50 turn out when `COc1ccc(CCC2(C3CCCC3)CC(O)=C(Sc3nncn3C)C(=O)O2)cc1Cl` (stereo not shown) [C(102), 6-[2-(3-chloro-4-methoxyphenyl)ethyl]-6-cyclopentyl-4-hydroxy-3-[(4-methyl-4H-1,2,4-triazol-3-yl)thio]-5,6-dihydro-2H-pyran-2-one] was run?
Answer: 38 nM

Question: `COc1ccc(CCC2(C3CCCC3)CC(O)=C(Sc3ncc[nH]3)C(=O)O2)cc1Cl` (stereo not shown) [C(103), 6-[2-(3-chloro-4-methoxyphenyl)ethyl]-6-cyclopentyl-4-hydroxy-3-(1H-imidazol-2-ylthio)-5,6-dihydro-2H-pyran-2-one] was tested. Which IC50 did it give?
Answer: 240 nM

Question: Which IC50 does the source give for `COc1ccc(CCC2(C3CCCC3)CC(O)=C(Sc3nnc(-c4ccncc4)o3)C(=O)O2)cc1Cl` (stereo not shown) [C(104), 6-[2-(3-chloro-4-methoxyphenyl)ethyl]-6-cyclopentyl-4-hydroxy-3-[(5-pyridin-4-yl-1,3,4-oxadiazol-2-yl)thio]-5,6-dihydro-2H-pyran-2-one] here?
Answer: 310 nM

Question: For `COc1ccc(CCC2(C3CCCC3)CC(O)=C(Sc3nc(C)cc(C)c3C#N)C(=O)O2)cc1Cl` (stereo not shown) [C(105), 2-({6-[2-(3-chloro-4-methoxyphenyl)ethyl]-6-cyclopentyl-4-hydroxy-2-oxo-5,6-dihydro-2H-pyran-3-yl}thio)-4,6-dimethylnicotinonitrile], which IC50 is on record?
Answer: 200 nM

Question: `COc1ccc(CCC2(C3CCCC3)CC(O)=C(Sc3nc(-c4ccccc4)cs3)C(=O)O2)cc1Cl` (stereo not shown) [C(106), 6-[2-(3-chloro-4-methoxyphenyl)ethyl]-6-cyclopentyl-4-hydroxy-3-[(4-phenyl-1,3-thiazol-2-yl)thio]-5,6-dihydro-2H-pyran-2-one] was tested. Which IC50 did it give?
Answer: 240 nM

Question: `COc1ccc(CCC2(C3CCCC3)CC(O)=C(SCc3ccccn3)C(=O)O2)cc1Cl` (stereo not shown) [C(107), 6-[2-(3-chloro-4-methoxyphenyl)ethyl]-6-cyclorpentyl-4-hydroxy-3-[(pyridin-2-ylmethyl)thio]-5,6-dihydro-2H-pyran-2-one] was tested. Which IC50 did it give?
Answer: 160 nM

Question: Which IC50 does the source give for `COc1ccc(CCC2(C3CCCC3)CC(O)=C(Sc3cccc(Cl)c3Cl)C(=O)O2)cc1Cl` (stereo not shown) [C(108), 6-[2-(3-chloro-4-methoxyphenyl)ethyl]-6-cyclopentyl-3-[(2,3-dichlorophenyl)thio]-4-hydroxy-5,6-dihydro-2H-pyran-2-one] here?
Answer: 210 nM

Question: For `COc1ccc(CCC2(C3CCCC3)CC(O)=C(SCCc3ccccn3)C(=O)O2)cc1Cl` (stereo not shown) [C(109), 6-[2-(3-Chloro-4-methoxy-phenyl)-ethyl]-6-cyclopentyl-4-hydroxy-3-(2-pyridin-2-yl-ethylsulfanyl)-5,6-dihydro-pyran-2-one], which IC50 is on record?
Answer: 900 nM

Question: `CC(C)(C#N)c1ccc(OCC2(C3CCCC3)CC(=O)CC(=O)O2)cc1F` (stereo not shown) [C(110), 2-[4-(2-Cyclopentyl-4,6-dioxo-tetrahydro-pyran-2-ylmethoxy)-2-fluoro-phenyl]-2-methyl-propionitrile] was tested. Which IC50 did it give?
Answer: 7600 nM

Question: How did the IC50 turn out when `Cc1cnc2nc(CC3=C(O)CC(COc4ccc(C(C)(C)C#N)c(F)c4)(C4CCCC4)OC3=O)nn2c1` (stereo not shown) [C(111), 2-{4-[2-Cyclopentyl-4-hydroxy-5-(6-methyl-[1,2,4]triazolo[1,5-a]pyrimidin-2-ylmethyl)-6-oxo-3,6-dihydro-2H-pyran-2-ylmethoxy]-2-fluoro-phenyl}-2-methyl-propionitrile] was run?
Answer: 395 nM

Question: For `Cc1cc(C)n2nc(CC3=C(O)CC(COc4ccc(C(C)(C)C#N)c(F)c4)(C4CCCC4)OC3=O)nc2n1` (stereo not shown) [C(112), 2-{4-[2-Cyclopentyl-5-(5,7-dimethyl-[1,2,4]triazolo[1,5-a]pyrimidin-2-ylmethyl)-4-hydroxy-6-oxo-3,6-dihydro-2H-pyran-2-ylmethoxy]-2-fluoro-phenyl}-2-methyl-propionitrile], which IC50 is on record?
Answer: 64 nM

Question: For `N#CCC(=O)c1ccc(C#CC2(C3CCCC3)CC(=O)CC(=O)O2)cc1` (stereo not shown) [E(1), 3-[4-(2-Cyclopentyl-4,6-dioxo-tetrahydro-pyran-2-ylethynyl)-phenyl]-3-oxo-propionitrile], which IC50 is on record?
Answer: 22000 nM

Question: For `N#CCC(=O)c1ccc(C#CC2(C3CCCC3)CC(=O)CC(=O)O2)s1` (stereo not shown) [E(2), 3-[5-(2-Cyclopentyl-4,6-dioxo-tetrahydro-pyran-2-ylethynyl)-thiophen-2-yl]-3-oxo-propionitrile], which IC50 is on record?
Answer: 8200 nM

Question: For `N#CCc1cccc(C#CC2(C3CCCC3)CC(=O)CC(=O)O2)c1` (stereo not shown) [E(3), [3-(2-Cyclopentyl-4,6-dioxo-tetrahydro-pyran-2-ylethynyl)-phenyl]-acetonitrile], which IC50 is on record?
Answer: 65000 nM

Question: For `Cc1cc(C#CCCC2(C3CCCC3)CC(=O)CC(=O)O2)c(C)cc1O` (stereo not shown) [F(1), 6-Cyclopentyl-6-[4-(4-hydroxy-2,5-dimethyl-phenyl)-but-3-ynyl]-dihydro-pyran-2,4-dione], which IC50 is on record?
Answer: 7200 nM

Question: `NS(=O)(=O)c1cccc(C#CCCC2(C3CCCC3)CC(=O)CC(=O)O2)c1` (stereo not shown) [F(2), 3-[4-(2-Cyclopentyl-4,6-dioxo-tetrahydro-pyran-2-yl)-but-1-ynyl]-benzenesulfonamide] was tested. Which IC50 did it give?
Answer: 7200 nM

Question: For `CSc1ccccc1C#CCCC1(C2CCCC2)CC(=O)CC(=O)O1` (stereo not shown) [F(3), 6-Cyclopentyl-6-[4-(2-methylsulfanyl-phenyl)-but-3-ynyl]-dihydro-pyran-2,4-dione], which IC50 is on record?
Answer: 8400 nM

Question: How did the IC50 turn out when `O=C1CC(=O)OC(CCC#Cc2ccccc2OC(F)(F)F)(C2CCCC2)C1` (stereo not shown) [F(4), 6-Cyclopentyl-6-[4-(2-trifluoromethoxy-phenyl)-but-3-ynyl]-dihydro-pyran-2,4-dione] was run?
Answer: 5800 nM

Question: How did the IC50 turn out when `O=C1CC(=O)OC(CCC#Cc2ccc(F)cc2)(C2CCCC2)C1` (stereo not shown) [F(5), 6-Cyclopentyl-6-[4-(4-fluoro-phenyl)-but-3-ynyl]-dihydro-pyran-2,4-dione] was run?
Answer: 25000 nM

Question: `Cc1ccc(C#CCCC2(C3CCCC3)CC(=O)CC(=O)O2)cc1` (stereo not shown) [F(6), 6-Cyclopentyl-6-(4-p-tolyl-but-3-ynyl)-dihydro-pyran-2,4-dione] was tested. Which IC50 did it give?
Answer: 83000 nM

Question: With `O=C1OC(CCC#Cc2cccc(O)c2)(C2CCCC2)CC(O)=C1Sc1nccs1` (stereo not shown) [F(7), 6-Cyclopentyl-4-hydroxy-6-[4-(3-hydroxy-phenyl)-but-3-ynyl]-3-(thiazol-2-ylsulfanyl)-5,6-dihydro-pyran-2-one] as the compound, how does the IC50 read?
Answer: 7500 nM

Question: Which IC50 does the source give for `COC1=CC(=O)OC(CCc2ccc(OC)c(Cl)c2)(C2CCCC2)C1` (stereo not shown) [G(3), 6-[2-(3-Chloro-4-methoxy-phenyl)-ethyl]-6-cyclopentyl-4-methoxy-5,6-dihydro-pyran-2-one] here?
Answer: 29000 nM

Question: For `O=C1CC(=O)OC(CCNC(=O)CCc2ccco2)(C2CCCC2)C1` (stereo not shown) [H(1), N-[2-(2-Cyclopentyl-4,6-dioxo-tetrahydro-pyran-2-yl)-ethyl]-3-furan-2-yl-propionamide], which IC50 is on record?
Answer: 1000 nM

Question: Which IC50 does the source give for `O=C1CC(=O)OC(CCNC(=O)c2ccco2)(C2CCCC2)C1` (stereo not shown) [H(2), Furan-2-carboxylic acid [2-(2-cyclopentyl-4,6-dioxo-tetrahydro-pyran-2-yl)-ethyl]-amide] here?
Answer: 51000 nM

Question: For `O=C1CC(=O)OC(CCCNC(=O)CCc2ccco2)(C2CCCC2)C1` (stereo not shown) [H(3), N-[3-(2-Cyclopentyl-4,6-dioxo-tetrahydro-pyran-2-yl)-propyl]-3-furan-2-yl-propionamide], which IC50 is on record?
Answer: 1200 nM

Question: How did the IC50 turn out when `Cc1cc(C)n2nc(SC3=C(O)CC(CCNC(=O)CCc4ccco4)(C4CCCC4)OC3=O)nc2n1` (stereo not shown) [H(4), N-{2-[2-Cyclopentyl-5-(5,7-dimethyl-[1,2,4]triazolo[1,5-a]pyrimidin-2-ylsulfanyl)-4-hydroxy-6-oxo-3,6-dihydro-2H-pyran-2-yl]-ethyl}-3-furan-2-yl-propionamide] was run?
Answer: 60000 nM
